Data reported in patent publication US20220265769A1, “COMPOSITIONS AND METHODS OF TREATMENT FOR BREAST CANCER INVOLVING A NOVEL CAPER?-MLL1 COMPLEX” (Geisinger Health, priority 2019, published 2022).

Columns and labels:
[1] = tested on: breast cancer cell subtypes; experiment: Total cell number and viability of an array of breast cancer cell subtypes treated with synthetic RRM3-derived peptides; assay type: cell-based, human; conditions: synthetic peptides at 5 μM; for proliferation (total cell number) of breast cancer cell subtypes: 72 hours
Description: FIG. 10. RRM3-derived CPPs disrupts growth of multiple breast cancer cell subtypes but has no effect on normal cells. A) Schematic of RRM3 amino acids 441-510 (SEQ ID NO: 13). B) Bars represent the peptide regions used to generate CPPs based on deletion results in FIG. 31. C) Amino acid sequences of synthetic peptide: Penetratin, His tag and RRM3-derived peptide. D) Representative images of crystal violet stained breast cancer cells as listed at top, taken after 72 hours days of treatment with synthetic peptides at 5 μM. E) Quantification of total cell numbers of different cell types and peptide (1-5) treatments.
FIG. 31. Key structural domains mediate the RRM3-MLL1 interaction. A) Modeling of RRM3 domain structure (amino acids: 441 to 510; SEQ ID NO: 13) using the SWISS MODEL tool and conserved domains by sequence alignment with vertebrate RRM-domaining proteins (https://www.ncbi.nlm.nih.gov/Structure/cdd/cddsrv.cgi?uid=240731) B) Top: anti-MLL1 IB to test the interaction between MLL1 and myc-tagged, deletion mutant RRM3 proteins in HEK293 cells. Bottom: IB/IP to quantitate myc-tagged proteins in lysates from HEK293 overexpressing wild type and microdeleted RRM3 domains. C) Bar graphs quantitating % viable cells after peptide treatments (peptides are numbered 1-5 as in FIG. 10) for 4 days. […] Lanes are labeled with peptide names. Arrowhead highlights signal from the entry of CPP. […] F) Anti-RBM39 immunoprecipitated samples from Neg.CPP (SEQ ID NO: 12), CPP-L491-L508 (SEQ ID NO: 24), CPP-G441-V460 (SEQ ID NO: 20), and CPP-E445-V476 (SEQ ID NO: 15) treated T47D lysates assayed by immunoblotting with antibodies against MLL1, ASH2L, RbBP5. […] G) Representative co-immunoprecipitations to show the interaction between RBM39 and its RBP interactors in Neg.CPP and CPP-E445-V476 treated T47D cell lysates. […] Immunoprecipitations and Immunoblots assaying RBM39-MLL1 interaction in neg.CPP and CPP-E445-V476 treated T47D, HCC1954, MDA-MB231 and ZR7530 cells show reduced interaction between MLL1 and RBM39 in vivo. (arrows highlight decreased interaction).
(§1) Cell counts for CPP treatments: Cells were plated in 6-well dishes and incubated with 5 μM concentration of peptides. At days noted, cells were trypsinized and counted using a hemocytometer.
Generation of synthetic peptides from the RRM3 domain: RRM3-derived peptides were commercially synthesized by Abm at purity >80%. Peptides were dissolved in 1λPBS at 1 mg/ml and used at 5 μM in low serum (1%) RPMI media.
As per UniProt, RRM3 spans amino acids (aa) 445-508 (SEQ ID NO: 34) and SWISS tool predicts 2 α helices and 4 β sheets that are conserved in vertebrate RRM-containing proteins (FIG. 31A). A series of myc-tag microdeleted constructs were designed to identify regions required for MLL1 binding. […]

[2] = biological target: T1, RBM39 (CAPERα)/MLL1 complex (Homo sapiens, UniProt Q03164); experiment: Anti-RBM39 co-immunoprecipitation of MLL1 complex members from peptide-treated breast cancer cell lysates; assay type: cell-based
T1 construct: endogenous in cells; lines from ATCC
T1 sequence (Q03164 1-2718 limits assumed): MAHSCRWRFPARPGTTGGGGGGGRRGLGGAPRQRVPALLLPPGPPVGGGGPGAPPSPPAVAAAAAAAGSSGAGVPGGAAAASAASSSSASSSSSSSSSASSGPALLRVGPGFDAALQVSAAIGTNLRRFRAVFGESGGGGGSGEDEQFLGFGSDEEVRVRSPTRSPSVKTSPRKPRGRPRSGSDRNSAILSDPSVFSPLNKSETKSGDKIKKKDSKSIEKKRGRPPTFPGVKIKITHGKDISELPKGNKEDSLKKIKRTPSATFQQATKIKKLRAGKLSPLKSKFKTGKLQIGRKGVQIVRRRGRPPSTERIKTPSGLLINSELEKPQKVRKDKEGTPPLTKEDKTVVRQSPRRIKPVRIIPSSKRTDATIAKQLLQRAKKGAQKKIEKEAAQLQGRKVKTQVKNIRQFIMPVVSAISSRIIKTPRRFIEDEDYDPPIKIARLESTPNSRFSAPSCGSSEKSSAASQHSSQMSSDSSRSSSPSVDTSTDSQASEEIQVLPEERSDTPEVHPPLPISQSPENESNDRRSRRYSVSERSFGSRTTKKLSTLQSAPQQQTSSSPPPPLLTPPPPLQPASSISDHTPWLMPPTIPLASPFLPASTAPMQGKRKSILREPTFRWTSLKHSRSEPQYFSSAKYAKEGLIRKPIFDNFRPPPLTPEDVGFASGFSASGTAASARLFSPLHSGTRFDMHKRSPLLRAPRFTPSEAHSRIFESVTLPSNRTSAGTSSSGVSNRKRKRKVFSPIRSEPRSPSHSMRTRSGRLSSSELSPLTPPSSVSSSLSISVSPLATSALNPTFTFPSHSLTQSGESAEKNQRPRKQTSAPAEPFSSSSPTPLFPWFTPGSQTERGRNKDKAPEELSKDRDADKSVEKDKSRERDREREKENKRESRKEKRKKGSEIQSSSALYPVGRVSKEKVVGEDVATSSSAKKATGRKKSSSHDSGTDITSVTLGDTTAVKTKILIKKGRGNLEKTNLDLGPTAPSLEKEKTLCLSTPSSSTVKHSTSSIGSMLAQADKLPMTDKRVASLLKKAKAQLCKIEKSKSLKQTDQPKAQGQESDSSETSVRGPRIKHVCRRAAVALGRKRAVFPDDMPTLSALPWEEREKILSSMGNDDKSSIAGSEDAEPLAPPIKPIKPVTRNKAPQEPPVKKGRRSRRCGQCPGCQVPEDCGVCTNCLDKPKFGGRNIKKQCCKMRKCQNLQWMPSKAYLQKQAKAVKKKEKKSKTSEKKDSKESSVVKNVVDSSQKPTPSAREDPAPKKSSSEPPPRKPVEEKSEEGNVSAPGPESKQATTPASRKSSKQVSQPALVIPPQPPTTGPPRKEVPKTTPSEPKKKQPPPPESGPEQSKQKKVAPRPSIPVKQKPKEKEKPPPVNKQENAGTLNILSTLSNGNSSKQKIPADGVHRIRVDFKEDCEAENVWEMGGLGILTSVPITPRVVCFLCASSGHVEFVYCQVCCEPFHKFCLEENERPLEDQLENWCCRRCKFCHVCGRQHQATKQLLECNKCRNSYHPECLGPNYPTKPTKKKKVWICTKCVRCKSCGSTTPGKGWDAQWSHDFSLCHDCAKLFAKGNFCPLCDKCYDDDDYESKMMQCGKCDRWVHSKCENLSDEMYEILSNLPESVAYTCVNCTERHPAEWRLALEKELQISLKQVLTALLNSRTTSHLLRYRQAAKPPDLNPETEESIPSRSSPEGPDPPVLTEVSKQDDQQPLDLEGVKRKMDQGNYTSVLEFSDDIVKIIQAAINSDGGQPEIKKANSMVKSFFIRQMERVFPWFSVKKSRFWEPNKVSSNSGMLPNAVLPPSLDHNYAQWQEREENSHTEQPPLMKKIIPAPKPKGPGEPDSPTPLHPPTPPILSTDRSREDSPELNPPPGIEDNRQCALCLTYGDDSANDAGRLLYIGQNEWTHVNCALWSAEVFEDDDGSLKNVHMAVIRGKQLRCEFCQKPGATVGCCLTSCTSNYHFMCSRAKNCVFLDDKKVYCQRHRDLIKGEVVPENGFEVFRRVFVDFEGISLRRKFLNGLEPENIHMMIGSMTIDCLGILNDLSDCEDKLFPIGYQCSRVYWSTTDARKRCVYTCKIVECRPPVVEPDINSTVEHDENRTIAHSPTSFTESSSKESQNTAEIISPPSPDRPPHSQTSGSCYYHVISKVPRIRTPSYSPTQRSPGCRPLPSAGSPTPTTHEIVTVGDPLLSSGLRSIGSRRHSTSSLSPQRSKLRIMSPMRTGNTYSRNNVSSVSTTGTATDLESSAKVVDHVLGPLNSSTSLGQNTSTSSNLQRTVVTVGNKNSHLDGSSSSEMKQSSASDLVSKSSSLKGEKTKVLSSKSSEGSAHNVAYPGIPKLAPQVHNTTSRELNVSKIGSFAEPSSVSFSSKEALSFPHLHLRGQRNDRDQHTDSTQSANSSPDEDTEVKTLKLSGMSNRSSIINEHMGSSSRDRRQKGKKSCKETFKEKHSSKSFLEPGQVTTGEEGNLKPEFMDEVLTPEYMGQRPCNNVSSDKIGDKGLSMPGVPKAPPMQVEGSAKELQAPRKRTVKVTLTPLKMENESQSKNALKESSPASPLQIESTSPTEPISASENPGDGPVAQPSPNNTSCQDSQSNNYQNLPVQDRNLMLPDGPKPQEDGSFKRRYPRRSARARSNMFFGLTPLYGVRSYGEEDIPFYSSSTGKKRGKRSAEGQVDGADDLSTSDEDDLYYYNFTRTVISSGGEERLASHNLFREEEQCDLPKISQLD
T1 sequence (Q03164 2719-3969 limits assumed): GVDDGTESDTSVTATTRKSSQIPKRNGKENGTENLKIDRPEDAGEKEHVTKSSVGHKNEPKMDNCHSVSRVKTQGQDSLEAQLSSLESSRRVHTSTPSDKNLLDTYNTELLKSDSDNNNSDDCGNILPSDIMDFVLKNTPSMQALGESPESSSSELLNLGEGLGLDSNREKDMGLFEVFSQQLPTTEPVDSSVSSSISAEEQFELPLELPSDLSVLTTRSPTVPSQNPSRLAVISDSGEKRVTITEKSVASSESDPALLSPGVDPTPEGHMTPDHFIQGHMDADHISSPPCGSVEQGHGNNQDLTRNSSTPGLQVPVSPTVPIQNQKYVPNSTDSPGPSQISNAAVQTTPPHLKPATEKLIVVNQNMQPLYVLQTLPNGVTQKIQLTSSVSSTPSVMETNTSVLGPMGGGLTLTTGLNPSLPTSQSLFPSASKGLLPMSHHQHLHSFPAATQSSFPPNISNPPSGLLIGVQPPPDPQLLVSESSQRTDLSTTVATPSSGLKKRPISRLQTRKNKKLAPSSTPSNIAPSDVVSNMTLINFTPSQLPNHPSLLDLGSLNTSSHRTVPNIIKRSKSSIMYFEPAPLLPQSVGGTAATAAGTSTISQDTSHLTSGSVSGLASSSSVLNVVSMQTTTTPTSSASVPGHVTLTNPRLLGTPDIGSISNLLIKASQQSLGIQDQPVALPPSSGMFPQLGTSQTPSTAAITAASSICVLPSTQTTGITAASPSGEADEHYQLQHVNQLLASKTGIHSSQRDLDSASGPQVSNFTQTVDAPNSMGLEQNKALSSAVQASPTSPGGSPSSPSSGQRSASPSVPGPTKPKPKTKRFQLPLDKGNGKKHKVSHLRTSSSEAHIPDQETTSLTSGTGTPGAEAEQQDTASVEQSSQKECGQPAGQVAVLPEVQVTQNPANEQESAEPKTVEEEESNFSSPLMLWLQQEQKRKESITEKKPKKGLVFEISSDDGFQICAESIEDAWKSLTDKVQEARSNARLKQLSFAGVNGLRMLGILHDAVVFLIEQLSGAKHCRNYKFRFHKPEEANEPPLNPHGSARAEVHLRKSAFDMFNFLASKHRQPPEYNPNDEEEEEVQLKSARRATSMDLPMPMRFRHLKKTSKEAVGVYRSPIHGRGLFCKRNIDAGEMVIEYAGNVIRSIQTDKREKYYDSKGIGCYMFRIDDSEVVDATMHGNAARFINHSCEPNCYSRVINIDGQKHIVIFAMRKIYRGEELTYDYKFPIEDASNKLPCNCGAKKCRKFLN
T1 sequence (Q15291 whole entry partner): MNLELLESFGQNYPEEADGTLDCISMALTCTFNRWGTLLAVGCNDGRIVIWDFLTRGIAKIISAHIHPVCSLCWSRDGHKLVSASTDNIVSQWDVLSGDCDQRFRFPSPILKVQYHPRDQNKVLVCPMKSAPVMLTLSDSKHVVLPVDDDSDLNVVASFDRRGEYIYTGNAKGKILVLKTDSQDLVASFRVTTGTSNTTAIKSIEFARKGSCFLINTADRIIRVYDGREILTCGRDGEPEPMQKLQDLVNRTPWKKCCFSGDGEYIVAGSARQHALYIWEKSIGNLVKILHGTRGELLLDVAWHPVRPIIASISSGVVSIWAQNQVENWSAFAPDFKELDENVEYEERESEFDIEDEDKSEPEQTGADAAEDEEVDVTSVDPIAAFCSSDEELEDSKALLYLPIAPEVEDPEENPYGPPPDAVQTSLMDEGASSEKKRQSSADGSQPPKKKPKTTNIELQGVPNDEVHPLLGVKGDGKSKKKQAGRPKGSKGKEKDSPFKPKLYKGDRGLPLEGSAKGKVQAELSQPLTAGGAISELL
Excerpt: (§2) FIG. 31. Key structural domains mediate the RRM3-MLL1 interaction. A) Modeling of RRM3 domain structure (amino acids: 441 to 510; SEQ ID NO: 13) using the SWISS MODEL tool and conserved domains by sequence alignment with vertebrate RRM-domaining proteins (https://www.ncbi.nlm.nih.gov/Structure/cdd/cddsrv.cgi?uid=240731) B) Top: anti-MLL1 IB to test the interaction between MLL1 and myc-tagged, deletion mutant RRM3 proteins in HEK293 cells. Bottom: IB/IP to quantitate myc-tagged proteins in lysates from HEK293 overexpressing wild type and microdeleted RRM3 domains. C) Bar graphs quantitating % viable cells after peptide treatments (peptides are numbered 1-5 as in FIG. 10) for 4 days. […] Lanes are labeled with peptide names. Arrowhead highlights signal from the entry of CPP. […] F) Anti-RBM39 immunoprecipitated samples from Neg.CPP (SEQ ID NO: 12), CPP-L491-L508 (SEQ ID NO: 24), CPP-G441-V460 (SEQ ID NO: 20), and CPP-E445-V476 (SEQ ID NO: 15) treated T47D lysates assayed by immunoblotting with antibodies against MLL1, ASH2L, RbBP5. […] G) Representative co-immunoprecipitations to show the interaction between RBM39 and its RBP interactors in Neg.CPP and CPP-E445-V476 treated T47D cell lysates. […]

PME cells = experiment: Crystal violet assay / cell counts of primary mammary epithelial cells (PMEs) treated with cell penetrating peptides; assay type: cell-based, human; conditions: synthetic peptides at 5 μM
Description: Crystal violet assay/optical density method of cell quantitation: 5×10^5 cells were plated per well in 6-well tissue culture plates. At times indicated cells were washed with PBS and fixed for 10 minutes in a 10% formalin solution. Cells were then rinsed with distilled water and subsequently stained with 100 μl 0.1% crystal violet solution for 30 min. Stained cells were rinsed with water to remove the excess traces of the staining solution. Cell-associated crystal violet dye was extracted with 500 μl of 10% acetic acid. Aliquots were collected and optical density was measured at 590 nm wavelength. Each point on the curve shown represents 3 independent wells.
as §1
Whether recombinant RRM3 conjugated with the Penetratin cell penetrating peptide (Dupont E, et al., Methods Mol Biol. 1324:29-37 (2015)) (FIGS. 9A, B) affects growth of T47D and PME cells was tested. Equal numbers of PME and T47D cells were seeded and incubated with 5 μM peptide in media for 72 hrs. […] Compared to CPP-coupled RRM3, CPP-RRM1 and RRM3 had no effect (FIGS. 9H-N). […]

[3] = biological target: T2, RBM39 and RNA binding proteins (RBPs) (Homo sapiens, UniProt Q14498); experiment: Co-immunoprecipitation of RBM39 and its RBP interactors in peptide-treated T47D cell lysates; assay type: cell-based; conditions: versus Neg.CPP
T2 construct: endogenous in cells; host or cells: T47D
T2 sequence (Q14498 2-530 limits assumed): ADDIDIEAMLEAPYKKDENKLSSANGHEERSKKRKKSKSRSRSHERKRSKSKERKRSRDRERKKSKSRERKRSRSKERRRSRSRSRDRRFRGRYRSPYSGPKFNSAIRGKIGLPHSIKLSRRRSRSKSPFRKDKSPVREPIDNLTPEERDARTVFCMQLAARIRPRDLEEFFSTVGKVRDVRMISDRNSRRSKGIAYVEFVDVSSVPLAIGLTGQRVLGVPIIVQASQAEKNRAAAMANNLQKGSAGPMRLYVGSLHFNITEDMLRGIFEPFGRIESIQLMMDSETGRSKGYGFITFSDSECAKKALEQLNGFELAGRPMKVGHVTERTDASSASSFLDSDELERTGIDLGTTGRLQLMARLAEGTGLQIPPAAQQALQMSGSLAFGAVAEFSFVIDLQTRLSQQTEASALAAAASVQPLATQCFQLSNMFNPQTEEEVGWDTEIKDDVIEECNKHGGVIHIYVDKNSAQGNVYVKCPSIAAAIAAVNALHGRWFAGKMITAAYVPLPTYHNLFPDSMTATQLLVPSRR
Excerpt: as §2

endogenous interaction between RBM39 and MLL1 ([2]; T47D, HCC1954, MDA-MB231 and ZR7530 cells, versus neg.CPP)	interaction between RBM39 and MLL1 complex members (MLL1, ASH2L, RbBP5) ([2]; treated T47D lysates, anti-RBM39 immunoprecipitation)	interaction of RBM39 with RBPs [3]	Substance	proliferation (total cell number) of breast cancer cell subtypes [1]	effect on PMEs / normal cells (proliferation and viability) (PME cells)	viability (% viable cells) of breast cancer cell subtypes ([1]; 4 days)
			RRM3 E445-V476: RRM3 E445-V476 peptide in the absence of Penetratin, negative control (SEQ ID NO: 2) (EIKDDVIEECNKHGGVIHIYVDKNSAQGNVYV; listed as Homo sapiens)	no effect		
disrupts the endogenous interaction	reduced the interaction	did not affect the interaction	CPP-E445-V476: synthetic RRM3-derived peptide E445-V476 with Penetratin and His tags (SEQ ID NO: 15; with His tag SEQ ID NO: 14) (RQIKIWFQNRRMKWKKGGEIKDDVIEECNKHGGVIHIYVDKNSAQGNVYVHHHHHH; RRM3-derived synthetic sequence)	pronounced effects on all subtypes	no effect	pronounced effects on all subtypes
			CPP-G441-V460: synthetic RRM3-derived peptide G441-V460 with Penetratin and His tags (SEQ ID NO: 20; with His tag SEQ ID NO: 21) (RQIKIWFQNRRMKWKKGGGWDTEIKDDVIEECNKHGGVHHHHHH; RRM3-derived synthetic sequence)	affected some Luminal and HER2+ subtypes		
